As usually defined, the inhibition is the percentage by which the read-out fell short of the control. A higher inhibition goes with a response far below the control. A word on the IC50: it is the concentration at which inhibition is half-maximal.

The values that follow come from US6087366A (The Trustees of Columbia University in the City of New York, priority 1996, dated 2000).

For data set [1], the system named is neuronally-differentiated PC12 cells. Nature of the data set: survival of neuronally-differentiated PC12 cells after NGF withdrawal. It counts as cell-based, rat. The settings on record: for EC (maximal): Rattus norvegicus. As for the experimental part: (§1) For survival experiments, naive or neuronally-differentiated PC12 cells were washed extensively in serum-, NGF-free medium as previously described (6,24) and replated onto collagen-coated 24-well tissue culture dishes at a density of approximately 2×10^5 cells per well. The final volume of medium in each well, including all drugs was 1 ml. To allow time for blockade of DNA synthesis, naive PC12 cells were, in some cases, pretreated with drug for 16 hr prior to serum withdrawal. NGF-treated neuronally-differentiated cells were not pretreated with drug prior to serum deprivation. At appropriate times of culture under the desired conditions, cells were lysed and the numbers of viable cells were determined as previously described (24). The number of intact nuclei was determined by counting in a hemacytometer. All counts were performed in triplicate, and survival data are expressed as a percentage of cells plated on day 0+/-SEM.

The subject of the next data set is sympathetic neurons. Nature of the data set: rate of protein synthesis ([3H]-leucine incorporation) in sympathetic neurons. Type of data set: cell-based. Particulars: Rattus norvegicus, Sympathetic neuron. On the procedure: (§2) Neuronally-differentiated PC12 cells and sympathetic neurons were plated on 24-well dishes as described above. After the cultures were pretreated with the appropriate drug for 1 hr, 5 μCi [^3 H]-leucine was added per well and the cells were allowed to incorporate the isotope for 10 hr. The cultures were washed and prepared for scintillation counting as described above for thymidine incorporation. Background levels of radioactivity was determined by treating wells with 5 μg/ml cycloheximide. All experimental points were performed in triplicate and the data are presented relative to untreated control samples as mean+/-SEM.

Data set [2] relates to naive PC12 cells. Nature of the data set: survival of naive PC12 cells with or without serum. Type of data set: cell-based, rat. The settings on record: 16 hrs pretreatment, serum withdrawal. As for the experimental part:
as §1

Data set [3] can be described thus: survival of naive PC12 cells with or without serum. It counts as cell-based, rat. Particulars: rat, naive pc12 cells; serum-containing medium, day 3; read-out: death of naive PC12 cells in the presence of serum. On the procedure:
as §1

Data set [4] can be described thus: survival of neuronally-differentiated PC12 cells after NGF withdrawal. It counts as cell-based, rat. Particulars: rat; post-mitotic neuronally-differentiated PC12 cells, with NGF, day 3; read-out: death in the presence of NGF. On the procedure:
as §1

The test system of data set [5] is neuronally-differentiated PC12 cells. Nature of the data set: rate of protein synthesis ([3H]-leucine incorporation) in neuronally-differentiated PC12 cells. It counts as cell-based, rat. On the procedure:
as §2

For data set [6], the system named is c-Jun kinase (JNK). Nature of the data set: c-Jun kinase activation in NGF-deprived neuronally-differentiated PC12 cells. The settings on record: flavopiridol 1 μM, olomoucine 200 μM. Type of data set: cell-based, rat. As for the experimental part: (§3) c-Jun kinase (JNK) was affinity purified from PC12 cell extracts with GST-c-Jun (a gift from Dr. Michael Karin, University of California, San Diego) bound to GSH-agarose beads (Sigma) by methods previously described (34). c-Jun kinase activity was determined by an in vitro solid-phase kinase assay as described previously (34). Activated c-Jun kinase was isolated from PC12 cells treated with 0.5 mM sodium arsenite for 30 min. […] GST-c-Jun was resolved on a 8.5% SDS gel and incorporation of ^32 PO4 was quantified by autoradiography and densitometry.

In data set [7] the test system is c-Jun kinase (JNK). Nature of the data set: in vitro solid-phase kinase assay, phosphorylation of GST-c-Jun by activated JNK. Particulars: for IC50: read-out: IC50, inhibition of GST-c-Jun phosphorylation by activated JNK in vitro. Type of data set: biochemical, rat. As for the experimental part: as §3
The test system of the next data set is rat sympathetic neurons. Nature of the data set: survival of rat sympathetic neurons after NGF withdrawal. The settings on record: for survival of NGF-deprived sympathetic neurons: flavopiridol 1 μM, iso-olomoucine 200 μM. It counts as cell-based. On the procedure: The cells were plated in 0.5 ml of medium per well in collagen-coated 24-well dishes at a density of approximately 0.5 ganglia per well. […] To eliminate non-neuronal cells, a mixture of uridine and 5-fluorodeoxyuridine (10 μM each) were added to the cultures on the following day. […] The appropriate drug and/or NGF or anti-mouse NGF antibody (1:200 dilution) was added in a final volume of 0.5 ml of the same medium described above. At appropriate times, the numbers of viable, phase bright neurons were determined by strip counting as previously described (33). All survival data are expressed as relative to the original number of cells counted for each well. All experimental points were performed in triplicate and are reported as mean+/-SEM,

Another data set relates to cdk1. Particulars: read-out: IC50, inhibition of cdk1 activity; cited from earlier work.
Data set [8] relates to naive PC12 cells. Description: [3H]-thymidine incorporation by naive PC12 cells. Type of data set: cell-based, rat. Particulars: compared with olomoucine. As for the experimental part: Naive PC12 cells were plated in collagen-coated 24-well dishes at a density of 4×10^5 per well in RPMI 1640 medium containing 3 μM insulin (Sigma) or 10% horse serum and 5% fetal calf serum. […] The cells were pretreated with the appropriate drug for a period of 16 hr prior to the addition of 1 μCi per well of [^3 H]-thymidine (NEN Products, Dupont). The cells were exposed to thymidine for 1-2 hour and then washed three times with cold PBS. Each well was extracted with 1 ml of 10% TCA at 4° C. for 1 hr, and the insoluble material was solubilized overnight at room temperature with 0.3 ml 1N NaOH. After neutralization with an equal volume of 1 N HCl, the solution was quantified by scintillation counting. The level of background counts was determined by treating cells with 10 μM aphidicolin. All experimental points were performed in triplicate. All data are presented relative to untreated control samples as mean+/-SEM.

The subject of another data set is GST-ERK1. Particulars: read-out: IC50, inhibition of GST-ERK1 activity in vitro; cited from earlier work.
Setting [9] is: neuronally-differentiated PC12 cells.

Like-named read-outs stand apart in the source and are kept apart here.

Consider `COc1cccc(-c2cc(=O)c3ccccc3o2)c1N` [PD 098059], for which the NGF-stimulated neurite regeneration result in data set [1] (20-100 μM, PC12 cells passaged into serum-free medium with NGF) was “effectively suppressed NGF-stimulated neurite regeneration”. The “effect on NGF-promoted survival” value in data set [1] (20-100 μM, naive or neuronally-differentiated PC12 cells, serum-free medium with or without NGF) is reported as “neither blocked nor mimicked the capacity of NGF to promote survival”.
With `CN1CC[C@H](c2c(O)cc(O)c3c(=O)cc(-c4ccccc4Cl)oc23)[C@H](O)C1` [flavopiridol, (-) cis-5,7-dihydroxy-2-(2-chlorophenyl) -8[4-(3-hydroxy-1-methyl) -piperidinyl]-4H-benzopyran-4-one], the inhibition at 1 µM with sympathetic neurons was about 25%; in [5] (Rattus norvegicus, PC-12), about 25%. The “survival of serum-deprived naive PC12 cells” value with naive PC12 cells [2] is “died somewhat more quickly than control cells”. In addition, the cytotoxicity at 72 h is 75% in data set [3] and about 20% in data set [4]. In addition, the EC (maximal) in data set [1] (PC-12, neuronally-differentiated PC12 cells, serum-free medium, read-out: concentration of maximal protection from death induced by NGF withdrawal) amounted to 1 µM. Further, the “protection from cell death after NGF withdrawal” value in data set [1] (setting [9]) was “good maintenance of survival even 5 days after NGF withdrawal”. Also, in the data set with c-Jun kinase (JNK) [6], the “level of JNK activation after NGF deprivation” value was “did not decrease the level of JNK activation”. Moreover, the “effect on in vitro phosphorylation of GST-c-Jun” value with c-Jun kinase (JNK) [7] (12 μM) is “no effect”; with c-Jun kinase (JNK) [7] (50 μM) it was “significantly inhibited phosphorylation”. Also, the 50% inhibitory concentration (IC50) at c-Jun kinase (JNK) [7] was over 12 µM. Besides, the “survival of NGF-deprived sympathetic neurons” value in the data set with rat sympathetic neurons is listed as “full survival for at least four days”.
In the case of `Cn1cnc2nc(NCCO)nc(NCc3ccccc3)c21` [iso-olomoucine], the IC50 with cdk1 was over 500 µM. For the same molecule, the “inhibition of thymidine incorporation” value with naive PC12 cells [8] is on record as “far less effective than olomoucine”. Moreover, the “protection from cell death after NGF withdrawal” value in [1] (setting [9]) is “far less effective than olomoucine”. In the data set on rat sympathetic neurons, the “survival of NGF-deprived sympathetic neurons” value is “ineffective”.
Molecule `Cn1cnc2c(NCc3ccccc3)nc(NCCO)nc21` [olomoucine, 2-(2-hydroxyethylamino) -6-benzylamino-9-methylpurine] displayed an inhibition at 200 µM in the data set with sympathetic neurons of about 30%. Further, in the data set with naive PC12 cells [2], the “survival of serum-deprived naive PC12 cells” value is “died at about the same rate as control cells”. The cytotoxicity at 72 h is 75% in data set [3] and about 20% in [4]. The IC50 with GST-ERK1 was 30 µM; at c-Jun kinase (JNK) [7] it was about 100 µM. Moreover, the EC (maximal) in data set [1] (PC-12, read-out: concentration of maximal protection from death induced by NGF withdrawal) turned out to be 200 µM. The “effect on protein synthesis” value in data set [5] (PC12 cell cultures, 200 μM) is on record as “no effect”. In addition, in the data set with c-Jun kinase (JNK) [6], the “level of JNK activation after NGF deprivation” value is reported as “did not decrease the level of JNK activation”. For the same molecule, in the data set on rat sympathetic neurons (Rattus norvegicus, Sympathetic neuron, 168 h, read-out: neurons still viable), the viability at 200 µM is about 75%.
